Assay results: patent US20200129459A1, “THE NEW USE OF 2-[(3Z)-6-FLUORO-2-METHYL-3-[(4-[…]) METHYLIDENE]INDEN-1 -YL] ACETIC ACID” (WYZSZA SZKOLA MEDYCZNA W BIALYMSTOKU, priority 2017, published 2020)

Key:
Type in all cases: in vivo, Wistar rats
sorbitol = assay: Sorbitol in subcutaneous muscle subjacent to the wound; conditions: diabetic rats, wet muscle weight
Method: Each muscle sample was cut into small pieces and ground in the presence of liquid nitrogen until it was powdered. The weight of the powered muscle tissue was determined, after which 1 mL of ice-cold 0.5 M perchloric acid was added and the samples were sonicated. The sonicated tissue was centrifuged for 5 min to remove precipitate. The resulting supernatant was neutralized by adding a solution 0.5 M potassium carbonate. The solution was then vortexed for 45 seconds, then centrifuged for 5 min at 5000 g and precipitate was discarded. The samples were stored in deep freezer at −86° C. until sorbitol determination.
The neutralized muscle extracts were vortexed and 10 μL aliquots along with sorbitol standards were added to a 96 well plate. Sorbitol dehydrogenase reaction was started by adding to each well 10 μL of a reaction mix containing 20 μg/μL sorbitol dehydrogenase, 2 mM NAD in 50 mM glycine-NaOH buffer pH 9.7. Following incubation with sorbitol dehydrogenase for 30 min at room temperature, 100 μL of a solution containing 65 μg/mL diaphorase, 10 uM FMN, 20 μM resazurin in 50 mM glycine-NaOH, pH 9.7 was added and the fluorescence (ex/em at 544/590 nm) was determined on a fluorescent plate reader for a period of an hour. Sorbitol content was expressed in nmol/mg of wet muscle weight.

[1] = system: rats with alloxan-induced diabetes; assay: Healing of excision wounds in rats with alloxan-induced diabetes, solutions applied on the wound; conditions: diabetic rats, 200 μl/daily on wound surface until full healing
Method: Use of 2-[(3Z)-6-fluoro-2-methyl-3-[(4-methylsulfinylphenyl)methylidene]inden-1-yl] acetic acid (sulindac) for the treatment of difficult healing wounds in rats with alloxan-induced diabetes.
63 adult male Wistar rats were used in the experiment. All animals were kept under observation for two weeks before the onset of the experiment to exclude any intercurrent infection. Animals were housed in standard plastic cages by 5 animals per cage. Rats were kept in air-conditioned room at 22±2° C., humidity of 60-70% and a natural light (12/12 in the day/night cycle). All rats were fed ad libitum with standard laboratory rats chow.
Diabetes mellitus was induced with alloxan, a highly toxic compound that destroyed the β-cells of the pancreas Langerhans islets, by single intraperitoneally injection at dose 170 mg per kg of body weight in 0.1 M citrate-phosphate buffer, pH 4.0 after 24-hours fasting. After alloxan administration drinking water was replaced by 2 per cent sucrose solution in tap water on 10 days period.
Rats were identified as diabetic on the basis of blood glucose levels (higher than 16 mmol/l after 12 h starvation at 10 days post-alloxan treatment; total 31 rats were diabetic). […]
Every day wounds were photographed by digital camera. Wound macroscopic parameters were quantified using the ImageJ software (NIH, USA).

aldose reductase = biological target: T1, aldose reductase (Rattus norvegicus, UniProt P07943); assay: Rat subcutaneous muscle aldose reductase activity; conditions: subcutaneous muscle subjacent wound, diabetic rats
T1 construct: Tissue samples were homogenized in 135 mM Na, K-phosphate buffer (pH 7.0) containing 5 mM 2-mercaptoethanol; from tissue; host or cells: rat subcutaneous muscle subjacent to the wound (supernatant of the homogenate)
Method: Tissue samples were homogenized in 135 mM Na, K-phosphate buffer (pH 7.0) containing 5 mM 2-mercaptoethanol. The homogenate was centrifuged at 12,000 g for 30 min and the supernatant was used in the following steps. Aldose reductase activity was determined according to the classic method with glyceraldehyde as substrate. The incubation mixture contained 135 mM Na, K-phosphate buffer (pH 7.0), 100 mM lithium sulfate, 0.03 mM NADPH, 0.04 mM D,L-glyceraldehyde (monomerized at 80 deg C. for 10 min and cooled to RT) as a substrate and the sample solution (50 μL). The reaction was initiated by adding NADPH at 37 C and stopped by adding 0.5 M HCl, followed by the addition of 6 M NaOH containing 10 mM imidazole. The solution was heated at 60 C for 10 min to convert NADP to a fluorescent product. The fluorescence was measured using a spectrofluorometer with ex/em 360/460 nm. The assay was performed in duplicates. Protein content was determined using BCA assay.

[2] = system: rats with alloxan-induced diabetes; assay: Histology of healed wound skin; conditions: diabetic rats, skin excised next day after full epithelization; hematoxylin-eosin and van Gison staining
Method: Tissue specimens next day after full epithelization were excised in depth to include underlying connective tissues above the external fascia of the dorsal muscles. The excised skin was fixed in paraformaldehyde (4% in PBS, 0.01 M, pH 7.4), dehydrated in graded alcohol solutions, embedded in paraffin blocks and sectioned at 5 μm-thick serial sections using microtome.
Preparations from the collected skin fragments were prepared in a standard manner and stained with the classic method using hematoxylin and eosin, and by the van Gison method using picric acid and acid fuchsine. The preparations were analyzed using a Leica DM 1000 light microscope equipped with a Leica DFC300 FX digital camera.

[3] = mediana (25th; 75th percentile)

Question: With CC1=C(CC(=O)O)c2cc(F)ccc2/C1=C\c1ccc([S+](C)[O-])cc1 (stereo not shown) [Sul, 2-[(3Z)-6-fluoro-2-methyl-3-[(4-methylsulfinylphenyl)methylidene]inden-1-yl] acetic acid] as the compound, how does the Sorbitol levels (sorbitol; M±m (SEM)) read?
Answer: Its Sorbitol levels is 0.057 ± 0.005 nmol/mg.

Question: And the Sorbitol levels (sorbitol; [3])?
Answer: The Sorbitol levels was 0.053(0.048; 0.075) ^ΔΔΔ nmol/mg.

Question: What about the Full healing ([1]; M±m (SEM)) of the same compound?
Answer: Its Full healing is 23.7 ± 0.65 days.

Question: What about the Full healing [1, 3] of the same compound?
Answer: Its Full healing is 24.0(22.0; 25.0) ^Δ days.

Question: And the AR (aldose reductase; M±m (SEM))?
Answer: The AR was 0.64 ± 0.04 nmole NADPH/min/mg protein.

Question: What about the AR (aldose reductase; [3]) of the same compound?
Answer: Its AR is 0.677(0.63; 0.69) ^ΔΔΔ nmole NADPH/min/mg protein.

Question: What about the “Histology of the area of damage” value [2] of the same compound?
Answer: The value was “the skin was rebuilt in the form of a scar tissue made of modified connective tissue”.
